Laboratory results from patent US20050129610A1, “Imaging agents and methods of imaging alpha7-nicotinic cholinergic receptor” (Johns Hopkins University, priority 2003, published 2005).
Where two headings read alike, the source gives them in different places.

Assays:
rat α7 nAChR = rat α7 nAChR (Rattus norvegicus, UniProt Q05941); assay: Receptor binding assay, rat α7 nAChR
Procedure: (§1) Receptor Binding Assays. The affinities of 1-4 for the rat α4β2 and α7 nAChRs were determined as described previously (Mullen, et al., J. Med. Chem.; 2000;43(22):4045-50). Affinities for the rat 5-HT3 receptor were also determined as described previously (Macor, et al., Bioorg. Med. Chem. Lett. 2001;11(3):319-21). All Ki determinations were done using 5-7 concentrations. […] There was a wide margin in selectivity compared to the α4β2 receptor subtype. Also included are the relative binding affinities to the 5-HT3 receptor, which has high sequence homology to the α7-nAChR.

rat α4β2 nAChR = rat α4β2 nAChR (Rattus norvegicus, UniProt P09483+P12390); assay: Receptor binding assay, rat α4β2 nAChR (selectivity); details: binding selectivity vs rat α4β2 nAChR
Procedure: as §1

rat 5-HT3 receptor = target: T1, rat 5-HT3 receptor (Rattus norvegicus, UniProt P35563); assay: Receptor binding assay, rat 5-HT3 receptor (selectivity); details: binding selectivity vs rat 5-HT3 receptor
T1 sequence (P35563 24-483): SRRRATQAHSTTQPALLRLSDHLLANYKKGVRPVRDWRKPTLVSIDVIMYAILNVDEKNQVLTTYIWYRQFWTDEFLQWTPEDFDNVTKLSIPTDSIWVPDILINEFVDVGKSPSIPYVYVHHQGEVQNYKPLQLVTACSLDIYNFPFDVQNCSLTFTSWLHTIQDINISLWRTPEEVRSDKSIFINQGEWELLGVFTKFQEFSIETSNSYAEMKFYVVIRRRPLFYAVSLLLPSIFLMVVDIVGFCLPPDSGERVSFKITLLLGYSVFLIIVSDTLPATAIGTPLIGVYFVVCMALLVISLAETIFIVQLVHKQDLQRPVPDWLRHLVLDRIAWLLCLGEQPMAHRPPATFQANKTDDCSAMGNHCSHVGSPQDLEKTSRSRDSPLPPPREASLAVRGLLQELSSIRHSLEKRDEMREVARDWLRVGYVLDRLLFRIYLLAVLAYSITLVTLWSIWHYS
Procedure: as §1

[1] = Rodent in vivo biodistribution (brain kinetics); parameters: species or system male CD-1 mice; details: for Brain distribution, F. CTX / Brain distribution, S. COLL / Brain distribution, CB / Brain distribution, CTX / Brain distribution, HIPP / Brain distribution, STR / Brain distribution, THAL / Brain distribution, HYPO: mice; for Brain distribution, CB: cerebellum; for Brain distribution, CTX: cortex; for Brain distribution, HIPP: hippocampus; for Regional selectivity of brain uptake: all time points, in words; for Uptake within the brain (in words): i.v. radiotracer; for Brain distribution, STR: striatum; for Brain distribution, THAL: thalamus; for Brain distribution, HYPO: hypothalamus; for Uptake/retention in target tissue (hippocampus): mouse hippocampus vs other brain substructures, FIG. 1 / FIG. 3
Procedure: (§2) Rodent In Vivo Biodistribution Studies of 1-4. Male CD-1 mice weighing between 20 and 25 g received an injection of 3.7 MBq (100 μCi) for 1 and 2 and 0.67 MBq ([…]) for 3 and 4 through the tail vein. The corresponding amounts administered were 0.2-0.8 μg/kg for 1 and 2 and 0.01-0.02 μg/kg for 3 and 4. For kinetic studies of 1-4, the mice were killed by cervical dislocation at 5, 15, 30 and 60 min after intravenous injection of radiotracer in 200 μL saline vehicle. The brains were removed and placed on ice, and the cerebellum, olfactory bulb, hypothalamus, hippocampus, striatum, cortex, brain stem and thalamus were harvested. A 45 min time point was obtained for 2 and one at 120 min for 3 and 4. The tissue samples were weighed and their radioactivity determined in an automated □ counter (1282 Compugamma CS; Pharmacia/LKB Nuclear Inc., Gaithersburg, Md.). The radioactivity concentration in aliquots of the injected tracer were determined along with the samples and served as standards for the calculation of percentage injected dose per gram of tissue (% ID/g). To assess binding specificity, subgroups of mice were treated with 10 mg/kg nicotine (for D or increasing doses of unlabeled 4 (0.01-10 mg/kg) 5 min prior to injection of radiotracer. Mice were killed at 30 and 60 min after blockade for 3 and 4, respectively.

α7-nAChR = target: T2, α7-nAChR (Mus musculus, UniProt P49582); assay: In vivo binding specificity (receptor blockade) study; parameters: species or system male CD-1 mice
T2 construct: Male CD-1 mice weighing between 20 and 25 g received an injection; from tissue; host or cells: brain of living male CD-1 mice (hippocampus, cortex and other regions)
Procedure: as §2

[2] = rat α7 nAChR, nonradioactive analogs, 5-7 concentrations, read-out: Ki
[3] = 30 min, low specific activity (LSA)
[4] = 60 min, low specific activity (LSA)

Sequence of rat α7 nAChR (Q05941 23-502): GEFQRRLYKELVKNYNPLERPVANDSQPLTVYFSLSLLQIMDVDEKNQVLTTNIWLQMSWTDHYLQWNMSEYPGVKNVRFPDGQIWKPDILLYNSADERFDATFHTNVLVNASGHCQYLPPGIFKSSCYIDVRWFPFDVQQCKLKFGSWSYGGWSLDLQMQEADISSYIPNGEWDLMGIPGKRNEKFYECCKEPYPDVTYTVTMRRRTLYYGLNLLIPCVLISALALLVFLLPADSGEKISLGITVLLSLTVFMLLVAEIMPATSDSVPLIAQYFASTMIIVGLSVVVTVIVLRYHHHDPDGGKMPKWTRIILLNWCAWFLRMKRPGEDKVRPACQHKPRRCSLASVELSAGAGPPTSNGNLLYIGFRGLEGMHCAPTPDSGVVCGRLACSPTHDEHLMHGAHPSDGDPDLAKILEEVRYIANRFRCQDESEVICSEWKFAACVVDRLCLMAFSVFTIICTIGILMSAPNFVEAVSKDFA
Sequence of rat α4β2 nAChR (P09483 31-630): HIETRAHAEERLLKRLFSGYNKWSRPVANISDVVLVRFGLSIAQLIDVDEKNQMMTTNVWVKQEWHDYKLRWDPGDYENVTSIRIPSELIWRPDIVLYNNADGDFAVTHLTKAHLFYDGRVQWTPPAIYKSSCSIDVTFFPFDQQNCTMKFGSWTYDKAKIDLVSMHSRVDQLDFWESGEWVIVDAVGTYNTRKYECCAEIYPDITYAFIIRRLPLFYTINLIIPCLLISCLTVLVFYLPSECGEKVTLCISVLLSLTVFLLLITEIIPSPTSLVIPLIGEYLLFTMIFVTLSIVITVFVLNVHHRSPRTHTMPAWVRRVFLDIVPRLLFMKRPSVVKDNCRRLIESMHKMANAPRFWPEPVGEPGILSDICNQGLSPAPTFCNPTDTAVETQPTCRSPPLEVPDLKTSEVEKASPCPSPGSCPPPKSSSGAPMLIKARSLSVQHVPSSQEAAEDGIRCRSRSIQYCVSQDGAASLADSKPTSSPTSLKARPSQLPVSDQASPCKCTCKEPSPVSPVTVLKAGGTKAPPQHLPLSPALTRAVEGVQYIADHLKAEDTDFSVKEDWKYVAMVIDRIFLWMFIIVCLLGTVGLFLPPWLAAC
Sequence of rat α4β2 nAChR (P12390 25-500): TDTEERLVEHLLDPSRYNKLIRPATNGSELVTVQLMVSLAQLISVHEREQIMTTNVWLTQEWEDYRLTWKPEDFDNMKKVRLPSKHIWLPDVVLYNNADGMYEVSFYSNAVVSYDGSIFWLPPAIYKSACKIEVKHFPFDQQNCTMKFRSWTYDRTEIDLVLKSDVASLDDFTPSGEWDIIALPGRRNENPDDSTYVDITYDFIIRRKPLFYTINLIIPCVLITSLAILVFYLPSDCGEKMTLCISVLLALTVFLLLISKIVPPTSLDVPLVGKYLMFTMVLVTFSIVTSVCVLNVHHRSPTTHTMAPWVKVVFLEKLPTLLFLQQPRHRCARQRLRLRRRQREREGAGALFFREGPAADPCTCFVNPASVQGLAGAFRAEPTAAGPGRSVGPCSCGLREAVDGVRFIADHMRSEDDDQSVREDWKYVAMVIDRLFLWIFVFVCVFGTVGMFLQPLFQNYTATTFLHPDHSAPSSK
T2 sequence (P49582 23-502): as the sequence (Q05941 23-502) above, with A402T counted along it

O=C(NC1CN2CCC1CC2)c1ccc(Br)cc1 (centres unmarked) [3 (precursor)]
Ki (rat α7 nAChR; [2]): 18 nM | α7/α4 (rat α4β2 nAChR): 36000 (1) | α7/5-HT3 (rat 5-HT3 receptor): 280 (1)

[11CH3]N(Cc1ccccc1)c1cnc2c(c1)CC1(CN3CCC1CC3)O2 (stereo not drawn) [Compound 1, (2′R)-N-[^11C]methyl-N-(phenylmethyl)-spiro[1-azabicyclo[2.2.2]octane-3,2′(3′H)-furo[2,3-b]pyridin]-5′-amine]
Brain distribution, F. CTX ([1]; 5 min post i.v. injection): 1.77 ± 0.36 % ID/g | Brain distribution, F. CTX ([1]; 15 min post i.v. injection): 1.38 ± 0.25 % ID/g | Brain distribution, F. CTX [1, 3]: 1.28 ± 0.07 % ID/g | Brain distribution, F. CTX ([1]; 30 min post i.v. injection): 0.95 ± 0.06 % ID/g | Brain distribution, F. CTX [1, 4]: 1.07 ± 0.15 % ID/g | Brain distribution, F. CTX ([1]; 60 min post i.v. injection): 0.79 ± 0.11 % ID/g | Brain distribution, S. COLL ([1]; 5 min post i.v. injection): 1.49 ± 0.50 % ID/g | Brain distribution, S. COLL ([1]; 15 min post i.v. injection): 1.42 ± 0.26 % ID/g | Brain distribution, S. COLL [1, 3]: 1.04 ± 0.15 % ID/g | Brain distribution, S. COLL ([1]; 30 min post i.v. injection): 1.09 ± 0.14 % ID/g | Brain distribution, S. COLL [1, 4]: 0.88 ± 0.16 % ID/g | Brain distribution, CB ([1]; 5 min post i.v. injection): 1.66 ± 0.50 % ID/g | Brain distribution, CB ([1]; 15 min post i.v. injection): 1.38 ± 0.32 % ID/g | Brain distribution, CB [1, 3]: 1.00 ± 0.06 % ID/g | Brain distribution, CB ([1]; 30 min post i.v. injection): 1.16 ± 0.19 % ID/g | Brain distribution, CB [1, 4]: 0.65 ± 0.07 % ID/g | Brain distribution, CB ([1]; 60 min post i.v. injection): 0.84 ± 0.05 % ID/g | Brain distribution, CTX ([1]; 5 min post i.v. injection): 1.46 ± 0.48 % ID/g | Brain distribution, CTX ([1]; 15 min post i.v. injection): 1.28 ± 0.21 % ID/g | Brain distribution, CTX [1, 3]: 1.16 ± 0.13 % ID/g | Brain distribution, CTX ([1]; 30 min post i.v. injection): 0.89 ± 0.11 % ID/g | Brain distribution, CTX [1, 4]: 0.86 ± 0.15 % ID/g | Brain distribution, CTX ([1]; 60 min post i.v. injection): 0.69 ± 0.10 % ID/g | Brain distribution, HIPP ([1]; 5 min post i.v. injection): 1.24 ± 0.33 % ID/g | Brain distribution, HIPP ([1]; 15 min post i.v. injection): 1.12 ± 0.15 % ID/g | Brain distribution, HIPP [1, 3]: 1.27 ± 0.09 % ID/g | Brain distribution, HIPP ([1]; 30 min post i.v. injection): 0.91 ± 0.05 % ID/g | Brain distribution, HIPP [1, 4]: 0.98 ± 0.16 % ID/g | Brain distribution, HIPP ([1]; 60 min post i.v. injection): 0.81 ± 0.10 % ID/g | Regional selectivity of brain uptake ([1]; mouse brain): No α7-nAChR-selective, regional brain uptake | Uptake within the brain (in words) ([1]; mouse brain): limited but measurable uptake within the brain | Brain distribution, STR ([1]; 5 min post i.v. injection): 1.47 ± 0.38 % ID/g | Brain distribution, STR ([1]; 15 min post i.v. injection): 1.20 ± 0.15 % ID/g | Brain distribution, STR [1, 3]: 1.20 ± 0.05 % ID/g | Brain distribution, STR ([1]; 30 min post i.v. injection): 0.93 ± 0.10 % ID/g | Brain distribution, STR [1, 4]: 0.75 ± 0.22 % ID/g | Brain distribution, STR ([1]; 60 min post i.v. injection): 0.69 ± 0.06 % ID/g | Brain distribution, THAL ([1]; 5 min post i.v. injection): 1.61 ± 0.61 % ID/g | Brain distribution, THAL ([1]; 15 min post i.v. injection): 1.35 ± 0.28 % ID/g | Brain distribution, THAL [1, 3]: 1.23 ± 0.12 % ID/g | Brain distribution, THAL ([1]; 30 min post i.v. injection): 1.11 ± 0.06 % ID/g | Brain distribution, THAL [1, 4]: 0.81 ± 0.06 % ID/g | Brain distribution, THAL ([1]; 60 min post i.v. injection): 0.77 ± 0.10 % ID/g | Ki (rat α7 nAChR): 0.54 nM | α7/α4 (rat α4β2 nAChR): >22,000 (1) | α7/5-HT3 (rat 5-HT3 receptor): 18 (1) | Receptor blockade in low specific activity (LSA) studies (α7-nAChR; LSA determinations at 30 and 60 min, mice): nor was there evidence of receptor blockade

[11CH3]Sc1ccc(C(=O)NC2CN3CCC2CC3)cc1 [Compound 2, N—(R)-1-aza-bicyclo[2.2.2]oct-3-yl-4-[^11C]methylsulfanyl-benzamide]
Brain distribution, CB ([1]; 5 min post i.v. injection): 0.23 ± 0.01 % ID/g | Brain distribution, CB ([1]; 15 min post i.v. injection): 0.26 ± 0.04 % ID/g | Brain distribution, CB ([1]; 30 min post i.v. injection): 0.14 ± 0.03 % ID/g | Brain distribution, CB ([1]; 45 min post i.v. injection): 0.09 ± 0.01 % ID/g | Brain distribution, CB ([1]; 60 min post i.v. injection): 0.08 ± 0.01 % ID/g | Brain distribution, CTX ([1]; 5 min post i.v. injection): 0.16 ± 0.04 % ID/g | Brain distribution, CTX ([1]; 15 min post i.v. injection): 0.17 ± 0.03 % ID/g | Brain distribution, CTX ([1]; 30 min post i.v. injection): 0.14 ± 0.05 % ID/g | Brain distribution, CTX ([1]; 45 min post i.v. injection): 0.10 ± 0.02 % ID/g | Brain distribution, CTX ([1]; 60 min post i.v. injection): 0.10 ± 0.02 % ID/g | Brain distribution, HIPP ([1]; 5 min post i.v. injection): 0.15 ± 0.01 % ID/g | Brain distribution, HIPP ([1]; 15 min post i.v. injection): 0.24 ± 0.04 % ID/g | Brain distribution, HIPP ([1]; 30 min post i.v. injection): 0.14 ± 0.03 % ID/g | Brain distribution, HIPP ([1]; 45 min post i.v. injection): 0.13 ± 0.02 % ID/g | Brain distribution, HIPP ([1]; 60 min post i.v. injection): 0.12 ± 0.02 % ID/g | Brain distribution, HYPO ([1]; 5 min post i.v. injection): 0.30 ± 0.02 % ID/g | Brain distribution, HYPO ([1]; 15 min post i.v. injection): 0.55 ± 0.05 % ID/g | Brain distribution, HYPO ([1]; 30 min post i.v. injection): 0.22 ± 0.04 % ID/g | Brain distribution, HYPO ([1]; 45 min post i.v. injection): 0.22 ± 0.09 % ID/g | Brain distribution, HYPO ([1]; 60 min post i.v. injection): 0.27 ± 0.05 % ID/g | Regional selectivity of brain uptake ([1]; mouse brain): no regional selectivity | Uptake within the brain (in words) ([1]; mouse brain): limited uptake | Brain distribution, STR ([1]; 5 min post i.v. injection): 0.22 ± 0.06 % ID/g | Brain distribution, STR ([1]; 15 min post i.v. injection): 0.37 ± 0.05 % ID/g | Brain distribution, STR ([1]; 30 min post i.v. injection): 0.16 ± 0.03 % ID/g | Brain distribution, STR ([1]; 45 min post i.v. injection): 0.15 ± 0.05 % ID/g | Brain distribution, STR ([1]; 60 min post i.v. injection): 0.18 ± 0.05 % ID/g | Brain distribution, THAL ([1]; 5 min post i.v. injection): 0.18 ± 0.02 % ID/g | Brain distribution, THAL ([1]; 15 min post i.v. injection): 0.26 ± 0.09 % ID/g | Brain distribution, THAL ([1]; 30 min post i.v. injection): 0.13 ± 0.03 % ID/g | Brain distribution, THAL ([1]; 45 min post i.v. injection): 0.10 ± 0.01 % ID/g | Brain distribution, THAL ([1]; 60 min post i.v. injection): 0.14 ± 0.03 % ID/g | Ki (rat α7 nAChR): 5.8 nM | α7/α4 (rat α4β2 nAChR): 14,000 (1) | α7/5-HT3 (rat 5-HT3 receptor): 1100 (1)

O=C(NC1CN2CCC1CC2)c1ccc([125I])cc1 [Compound 3, N-(R)-1-Aza-bicyclo[2.2.2]oct-3-yl-4-[^125I]iodo-benzamide]
Uptake values within the brain ([1]; mouse brain, FIG. 1): < 0.4 % ID/g | Uptake/retention in target tissue (hippocampus) [1]: retention within hippocampus, a target tissue, was demonstrated | Blocking study (nicotine blockade) (α7-nAChR; 10 mg/kg nicotine 5 min before radiotracer, mice killed at 30 min, FIG. 2): failed to demonstrate regionally-selective blockade, although significantly decreased radiotracer uptake was demonstrated in the regions studied

[125I]c1occc1-c1cnc2c(c1)CC1(CN3CCC1CC3)O2 (stereo not drawn) [Compound 4, (2′R)-5′-(2-[^125I]iodo-3-furanyl)spiro[1-azabicyclo[2.2.2]octane]-3,2′(3′H)-furo[2,3-b]pyridine]
Uptake within the brain (in words) ([1]; mouse brain): gained ready access to the brain | Uptake/retention in target tissue (hippocampus) [1]: modest but higher uptake in target tissue (hippocampus) than within other brain substructures | Ki (rat α7 nAChR; [2]): 0.26 nM | Receptor blockade study (α7-nAChR; unlabeled 4 (0.01-10 mg/kg) 5 min before radiotracer, mice killed at 60 min, FIG. 4): significant blockade in the target tissue and slightly less so in cortex
